From patent US7714026B2, “Pharmaceutical composition containing bakuchiol for treating woman osteoporosis” (Sinphar Pharmaceutical Co., Ltd., priority 2004, dated 2010)
Entries after “also recorded” stand apart in the source; their conditions may differ.

Test system: ovariectomized female Wistar rats (osteoporosis caused by estrogen deficiency)
Experiment: Ovariectomized female rat model of osteoporosis caused by estrogen deficiency
Format: in vivo
Details: two months; for bone volume of proximal tibia vs OVX group: FIG. 1; for apparent bone density of tibia vs OVX group: FIG. 2; for erosion surface (ES/BS) of proximal tibia (bone resorption) vs OVX group: FIG. 3
Text: The purpose of this example is to show the potency of bakuchiol in treating osteoporosis, wherein ovary of a female rat is removed to stimulate osteoporosis caused by estrogen deficiency.
The female Wistar rats of 16 weeks old (unless specified in the other experiment description) were obtained from the stock reared by the Animal breeding center, National Scientific Council in Taipei. These rats were grouped by weights matched in order to distribute the physiological response variation from rats evenly into each group. These rats were grouping as follows: • Baseline group fed with no drug added food (n=8) • Sham operation group fed with no drug added food (Sham) (n=10) • Ovariectomy operation group fed with no drug added food (OVX) (n=8) • Ovariectomy operation group fed with Drug A (5 mg/kg) added food (OVX+A) (n=9) • Ovariectomy operation group fed with Drug B (15 mg/kg) added food (OVX+B) (n=9)
Ovariectomy (removal of ovaries) operation: Ovariectomy was induced using a protocol similar to that described by Wronski et al (Wronski et al, Endocrinology, 123 (2), 681-686 ([…]))
During the experiments, the rats were housed in hanging grid cages in groups of two at 21° C. with a 12 hours dark cycle. Food (Rat-mouse diet III, adequate in 1% of calcium content and 1.2% of phosphate content, Purina, USA) was administered by paired feeding between the experimental and control groups. Pair-feeding was carried out by calculating the average amount of food intake in the Sham group. So give the same amount of food to the OVX, OVX+A (5 mg/kg), OVX+B (15 mg/kg) group animals the following day. These animals were fed with a period of two months except for the baseline group which were killed on the very day of doing ovariectomy or sham operation. Rats of OVX+A and OVX+B groups were fed with the usual food chuck but added certain amount of compound A and B in it respectively. Water was given ad libitum to all rats.
The test drug was weighted according to dose of 5 mg/kg and 15 mg/kg, and added into the usual food chuck powder and mixed with 10% starch paste. After fully mixed, these chuck powder were made into mass manually and dried by air flow oven. The food with added drug to rats was performed by single blind method.
These labeling and bone histomorphometry assessment were done based on standard procedure in bone research (Lin et al, Calcif. Tissue Int., 67, 373-377 (2000)). Specimen were prestained with Villanueva bone stain, then […] embedded in London resin. Undecalcified sections of 7 μm thick were cut using Jung-K microtome (Leica Ltd, USA) and treated with Villanueva stain for observation under light microscopy. Seven μm thick unstained sections were prepared for fluorescent microscopy and assessed with program Osteomeasure (3.0 version, Atlanta, USA). The bone volume (FIG. 1) and eroded surface parameters (FIG. 3) were obtained according to Lin et al. (Lin et al, Calcif. Tissue Int., 67, 373-377 (2000)). The experiment was performed under specific project licences from the Animal Center and IAACU, National Defense Medical Center, National Defense University, Taipei, Taiwan.
The whole tibia and femur were stripped off attached muscles and ligaments after sacrifice. An apparent bone density measurement was done based on Archimedes floating principle on an electronic balance set with densitometry frame (Danielsen et al., Calcif. Tissue Int., 52, 26-33 (1993)). The weight of bone measured in the air was marked as W-air. The weight of the same bone weighed in water will be marked as W-water. The apparent bone density was calculated as [W-air/(W-air minus W-water)](gm/cm^3) (FIG. 2, Bone apparent density of Tibia).

C=C[C@@](C)(/C=C/c1ccc(O)cc1)CCC=C(C)C [Bakuchiol, bakuchiol]
bone volume of proximal tibia vs OVX group (OVX+A, 5 mg/kg in food): increase in the bone volume | apparent bone density of tibia vs OVX group (OVX+A, 5 mg/kg in food): increase | erosion surface (ES/BS) of proximal tibia (bone resorption) vs OVX group (OVX+A, 5 mg/kg in food, 5 mg/kg): inhibiting the bone resorption; also recorded: inhibition of bone erosion (bone resorption) | bone volume of proximal tibia vs OVX group (OVX+B, 15 mg/kg in food): increase in the bone volume | apparent bone density of tibia vs OVX group (OVX+B, 15 mg/kg in food): increase | erosion surface (ES/BS) of proximal tibia (bone resorption) vs OVX group (OVX+B, 15 mg/kg in food): inhibition of bone erosion (bone resorption)
